# Laboratory results reported in ChEMBL document CHEMBL5257079, “Discovery of FXR/PPARγ dual partial agonist” (Bioorg Med Chem, 2023).
# Tests used:
# [1] = biological target: T1, Bile acid receptor (Homo sapiens, UniProt Q96RI1); experiment: Partial agonist activity at FXR-LBD-GST (unknown origin) by TR-FRET assay
# T1 sequence (Q96RI1 whole entry): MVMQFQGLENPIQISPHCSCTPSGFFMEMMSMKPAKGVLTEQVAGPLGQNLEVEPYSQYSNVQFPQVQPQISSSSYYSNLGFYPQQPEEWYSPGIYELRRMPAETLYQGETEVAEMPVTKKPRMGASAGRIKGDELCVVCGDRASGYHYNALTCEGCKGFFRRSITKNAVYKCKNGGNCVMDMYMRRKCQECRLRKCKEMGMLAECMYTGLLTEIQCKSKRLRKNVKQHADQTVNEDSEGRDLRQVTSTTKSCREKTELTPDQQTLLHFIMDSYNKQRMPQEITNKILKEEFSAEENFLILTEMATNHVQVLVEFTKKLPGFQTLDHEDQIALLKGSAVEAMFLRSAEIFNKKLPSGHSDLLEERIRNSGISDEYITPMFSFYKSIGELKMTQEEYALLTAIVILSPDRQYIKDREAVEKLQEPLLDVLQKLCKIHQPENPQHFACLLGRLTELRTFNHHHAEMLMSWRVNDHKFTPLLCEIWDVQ
# [2] = biological target: T1, Bile acid receptor; experiment: Antagonist activity at FXR-LBD-GST (unknown origin) in presence of GW4064
# [3] = Metabolic stability in mouse liver microsomes assessed as parent compound remaining after 30 mins; type: ADME, Microsome; details: read-out: Stability
# [4] = Metabolic stability in mouse liver microsomes assessed as half life; type: ADME, Microsome
# [5] = biological target: T1, Bile acid receptor; experiment: Partial agonist activity at human FXR expressed in Huh-7 cells in presence of CDCA by luciferase reporter gene assay; type: cell-based
# [6] = biological target: T2, Bile acid receptor (Homo sapiens) (UniProt Q96RI1); experiment: Partial agonist activity at human FXR expressed in Huh-7 cells in presence of CDCA by luciferase reporter gene assay relative to GW4064; type: cell-based
# T2 sequence (whole entry): T1 sequence (Q96RI1 whole entry)
EC50 ([1]; read-out: EC50),EC50 [1],SMILES,also measured
140 nM,,CC(C)(C)c1ccc(Cn2cnc3c(-c4ccc(C(=O)O)cc4)cccc32)cc1,
,Not Active,CC(C)(C)c1ccc(NC(=O)c2ccc3ncn(Cc4ccc(C(=O)O)cc4)c3c2)cc1,
,Not Active,CC(C)(C)c1ccc(-c2nc3ccccc3n2Cc2ccc(C(=O)O)cc2)cc1,
,Not Active,CC(C)(C)c1ccc(C(=O)Nc2cccc3c2ncn3-c2ccc(C(=O)O)cc2)cc1,
,Not Active,CC(C)(C)c1ccc(Cn2cnc3cc(C(=O)Nc4ccc(C(=O)O)cc4)ccc32)cc1,
,Not Active,CC(C)(C)c1ccc(NC(=O)c2ccc3c(c2)ncn3Cc2ccc(C(=O)O)cc2)cc1,
760 nM,,CC(C)(C)c1ccc(-c2cccc3c2ncn3Cc2ccc(C(=O)O)cc2)cc1,
,Not Active,CC(C)(C)c1ccc(Cn2cnc3ccc(C(=O)Nc4ccc(C(=O)O)cc4)cc32)cc1,
510 nM,,CC(C)(C)c1ccc(-n2cnc3c(-c4ccc(C(=O)O)cc4)cccc32)cc1,IC50 [2]: 9900 nM; remaining at 0.5 h [3]: 36.9%; half-life [4]: 25 min
,Not Active,CC(C)(C)c1ccc(-c2cccc3c2ncn3-c2ccc(C(=O)O)cc2)cc1,
140 nM,,CC(C)(C)c1ccc(Cn2cnc3c(NC(=O)c4ccc(C(=O)O)cc4)cccc32)cc1,EC50 [5]: 2200 nM; Activity [6]: 6%
410 nM,,CC(C)(C)c1ccc(Cn2cnc3c(NC(=O)Cc4ccc(C(=O)O)cc4)cccc32)cc1,
,Not Active,CC(C)(C)c1ccc(Cn2c(-c3ccc(C(=O)O)cc3)nc3ccccc32)cc1,
,Not Active,CC(C)(C)c1ccc(C(=O)Nc2cccc3c2ncn3Cc2ccc(C(=O)O)cc2)cc1,
490 nM,,CC(C)(C)c1ccc(-n2cnc3c(NC(=O)c4ccc(C(=O)O)cc4)cccc32)cc1,remaining at 0.5 h [3]: 37.9%; half-life [4]: 24.6 min
